Where two headings read alike, the source gives them in different places.
Experiments:
[1] = molecular target: T1, Myt1 kinase (recombinant PMYT-1) (Homo sapiens, UniProt Q99640); assay: Myt1 kinase binding assay (LanthaScreen Eu Kinase Binding Assay)
T1 construct: full length PMYT-1 was expressed by baculovirus in insect cells; purchased Invitrogen A30984; host or cells: insect cells (baculovirus)
T1 sequence (Q99640 1-499): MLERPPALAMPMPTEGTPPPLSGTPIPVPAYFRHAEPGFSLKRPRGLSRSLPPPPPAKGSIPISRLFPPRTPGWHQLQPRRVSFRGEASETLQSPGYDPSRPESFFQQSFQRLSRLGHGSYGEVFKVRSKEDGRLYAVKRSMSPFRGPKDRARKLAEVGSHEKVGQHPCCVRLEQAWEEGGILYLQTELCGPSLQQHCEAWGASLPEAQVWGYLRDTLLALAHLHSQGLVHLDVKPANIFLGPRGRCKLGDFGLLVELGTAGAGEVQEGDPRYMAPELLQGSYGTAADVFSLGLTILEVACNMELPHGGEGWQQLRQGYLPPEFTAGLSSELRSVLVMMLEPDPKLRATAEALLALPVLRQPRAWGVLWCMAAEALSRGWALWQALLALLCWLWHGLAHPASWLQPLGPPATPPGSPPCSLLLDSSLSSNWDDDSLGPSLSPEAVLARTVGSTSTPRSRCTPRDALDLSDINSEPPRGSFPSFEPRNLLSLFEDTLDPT
Protocol: (§1) To calculate the emission ratio, the acceptor/tracer emission ([…]) was divided by the antibody/donor emission ([…]) and the average of duplicate measurement was used for calculations. Data plotting, analysis of binding, and curve fitting was done using Excel add-in XLfit version 5.5.0.5 (IDBS, Guildford, United Kingdom). […] “NT” means not tested.
We used a LanthaScreen Europium (Eu) Kinase Binding Assay to determine the binding affinities (IC50) of compounds to Myt1 kinase. […] “NT” designates that the compound was not tested in this assay.

[2] = molecular target: T2, Wee1A kinase (CDK1 Tyr15 phosphorylation in ACHN renal cell carcinoma cells) (Homo sapiens, UniProt P30291); assay: High-content imaging of pCdk1 Y15, Wee1A kinase target engagement in ACHN cells; format: cell-based
T2 construct: pCDK1 Tyr15 immunofluorescence read-out
Protocol: Each of an ACHN renal cell carcinoma cell line (ATCC) and a DAOY medulloblastoma cell line, and an A427 lung cancer line were cultured in Minimum Essential Medium Eagle supplemented with 10% fetal calf serum (Sigma), 1% Penicillin-Streptomycin and 10 mM HEPES buffer (HyClone). Cell cultures were kept in a humidified incubator at 37 °C and 5% CO2. Cells were routinely tested for Mycoplasma contamination.
For target engagement assessment of Wee1A kinase inhibition, high-content imaging of ACHN renal cell carcinoma cells was used for quantification of CDK1 phosphorylated on tyrosine 15 by immunofluorescence (“IF”). 20,000 cells per well were seeded in tissue culture treated 96 well plates and treated with compounds at concentrations ranging from 7 to 5,000 nM or from 0.3 to 200 nM for 4h. Cells were fixated for 15 minutes in 4% paraformaldehyde solution, washed in PBS and permeabilized using 0.2% Triton X-100. Blocking was performed for 1 h at RT using Blocker FL Fluorescent Blocking Buffer (Thermo Scientific), thereafter cells were incubated with primary antibody (rabbit anti-pCDK1 Y^15, #4539, Cell Signaling Technology) at 4 °C ON. Alexa Fluor Plus 647 labelled goat anti-rabbit (A32733, Thermo Scientific) was used as secondary antibody. After washing in PBS, nuclei were stained with DAPI solution for 10 min at RT, protected from light. Cells were imaged using an ImageXpress Pico automated imaging system and CellReporter Xpress software (Molecular Devices). The percentage of cells with nuclear positivity for pCdk1 Y^15 compared to DMSO control was determined for each well and drug dose response curves and EC50 values were calculated and visualized using GraphPad Prism. Target engagement for Wee1A kinase can also be measured using the same AlphaLISA assay in OVCAR3 cells, an ovarian cancer cell line. NIH:OVCAR-3 (OVCAR3) cells are cultured in RPMI-1640 medium supplemented with 0.01 mg/ml insulin, 20% FBS, 1% Penicillin-Streptomycin and 10 mM HEPES buffer. 14,000 cells per well are seeded into 96 well tissue culture plates in full medium. Twenty-four hours post seeding, cells are treated with compound for 4 hours at concentrations ranging from 0.017 nM to 1000 nM.

[3] = molecular target: T3, recombinant human Wee1A kinase (Homo sapiens, UniProt P30291); assay: Wee1A kinase binding assay (LanthaScreen Eu time-resolved FRET)
T3 construct: full length Wee1 kinase was expressed by baculovirus in insect cells; purchased Invitrogen PV3817; host or cells: insect cells (baculovirus)
Protocol: This time resolved-FRET binding assay was performed in white 384-well low volume plates (Greiner, cat #784075), at room temperature in kinase buffer A (KBA; Invitrogen cat #PV3189), consisting of 50 mM HEPES-NaOH (pH 7.5), 0.01% Brij-35, 10 mM MgCl2, and 1 mM EGTA. 5 μL of compound (diluted in reaction buffer, to 1% DMSO) were added to various wells in the plate, followed by 5 μL each of recombinant human Wee1A kinase (full length Wee1 kinase was expressed by baculovirus in insect cells using a N-terminal GST tag (MW: 99.1 kDa) (Invitrogen cat #PV3817) and LanthaScreen Eu-anti-GST antibody (Invitrogen, cat #PV5594). After this, 5 μL of kinase tracer 178 (Invitrogen, cat #PV5593) was added to the plate and the plate was incubated for 60 minutes at room temperature. The final assay conditions in each well were: 30 nM tracer 178, 5 nM Wee1A kinase and 2 nM Eu-labeled antibody in total assay volume of 15 μL. An Envision 2104 (Perkin-Elmer) Plate Reader with the following time-resolve fluorescence setting was used for performing LanthaScreen kinase binding assay. • Excitation 320 nm (30 nm bandpass) • Kinase Tracer Emission 665 nm (10 nm bandpass) • LanthaScreen Eu-anti-Tag Antibody Emission 615 nm (10 nm bandpass) • Dichroic Mirror Instrument dependent • Delay Time 100 μs • Integration Time 200 μs
as §1

[4] = 3 nM tracer 178, 2.5 nM PMYT-1, 1 nM Eu-labeled antibody, read-out: Myt1 kinase Binding IC50
[5] = 4 h treatment, nuclear positivity for pCdk1 Y15 vs DMSO control, read-out: CDK1 Tyr15 Phosphorylation EC50
[6] = 30 nM tracer 178, 5 nM Wee1A kinase, 2 nM Eu-labeled antibody, 60 minutes at room temperature, read-out: Wee1A kinase Binding IC50

T2 sequence (P30291 whole entry): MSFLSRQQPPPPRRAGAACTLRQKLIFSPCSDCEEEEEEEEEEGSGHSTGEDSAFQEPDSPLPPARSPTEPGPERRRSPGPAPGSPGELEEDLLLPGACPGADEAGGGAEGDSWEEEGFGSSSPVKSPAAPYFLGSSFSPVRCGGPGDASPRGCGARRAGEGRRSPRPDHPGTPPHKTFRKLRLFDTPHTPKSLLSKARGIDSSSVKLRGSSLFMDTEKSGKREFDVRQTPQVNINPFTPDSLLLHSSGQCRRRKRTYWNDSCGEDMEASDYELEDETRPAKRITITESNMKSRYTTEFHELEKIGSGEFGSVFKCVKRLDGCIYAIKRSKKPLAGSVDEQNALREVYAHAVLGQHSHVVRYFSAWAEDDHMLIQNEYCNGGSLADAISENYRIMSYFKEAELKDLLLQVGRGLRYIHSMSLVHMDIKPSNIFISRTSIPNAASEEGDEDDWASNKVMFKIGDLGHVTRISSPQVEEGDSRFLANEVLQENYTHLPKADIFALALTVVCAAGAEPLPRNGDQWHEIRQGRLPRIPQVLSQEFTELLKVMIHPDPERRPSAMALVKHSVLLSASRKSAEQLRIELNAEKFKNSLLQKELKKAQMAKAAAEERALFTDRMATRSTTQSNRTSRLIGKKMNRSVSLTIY
T3 sequence (P30291 whole entry): as above

| SMILES | IC50 [1, 4] [nM] | EC50 [2, 5] [nM] | IC50 [3, 6] [nM] | IC50 ([1]; Myt1 kinase Binding IC50, 3 nM tracer 178, 2.5 nM PMYT-1, 1 nM Eu-labeled antibody) [nM] | EC50 ([2]; read-out: CDK1 Tyr15 Phosphorylation EC50, 4 h treatment, nuclear positivity for pCdk1 Y15 vs DMSO control) [nM] | IC50 [3] [nM] |
| --- | --- | --- | --- | --- | --- | --- |
| C=CCn1c(=O)c2cnc(Nc3ccccc3)nc2n1-c1cccc(NC2CCNCC2)n1 [Compound 123, 6-(phenylamino)-1-{6-[(piperidin-4-yl)amino]pyridin-2-yl}-2-(prop-2-en-1-yl)-1H,2H,3H-pyrazolo[3,4-d]pyrimidin-3-one] | 100 to 500 | 500 to 1000 | < 10 |  |  |  |
| C=CCn1c(=O)c2cnc(Nc3cnn(CC(C)C)c3)nc2n1-c1cccc(N(C)C2CCNCC2)n1 [Compound 170, 1-{6-[methyl(piperidin-4-yl)amino]pyridin-2-yl}-6-{[1-(2-methylpropyl)-1H-pyrazol-4-yl]amino}-2-(prop-2-en-1-yl)-1H,2H,3H-pyrazolo[3,4-d]pyrimidin-3-one] |  |  |  | > 500 | > 1000 | < 10 |
| CCn1c(=O)c2cnc(Nc3cccc(-c4cccnc4)c3)nc2n1-c1cccc(OC2CCN(C)CC2)n1 [Compound 352, 2-ethyl-1-[6-(1-methyl-4-piperidyloxy)-2-pyridyl]-6-[m-(3-pyridyl)phenylamino]-1,2-dihydro-3H-1,2,5,7-tetraazainden-3-one] | 20 to 100 | < 100 | < 10 |  |  |  |
| C=CCn1c(=O)c2cnc(Nc3ccc4c(cnn4C)c3)nc2n1-c1cccc(O[C@@H]2CCN[C@H](C)C2)n1 (stereo in doubt) [Compound 381, 2-allyl-6-((1-methyl-1H-indazol-5-yl)amino)-1-(6-(((2R,4R)-2-methylpiperidin-4-yl)oxy)pyridin-2-yl)-1,2-dihydro-3H-pyrazolo[3,4-d]pyrimidin-3-one] | 100 to 500 | < 100 | < 10 |  |  |  |
| C=CCn1c(=O)c2cnc(Nc3ccc4c(cnn4C)c3)nc2n1-c1cccc(O[C@@H]2CCN[C@@H](C)C2)n1 (relative stereo) [Compound 405, rel-2-allyl-6-((1-methyl-1H-indazol-5-yl)amino)-1-(6-(((2R,4S)-2-methylpiperidin-4-yl)oxy)pyridin-2-yl)-1,2-dihydro-3H-pyrazolo[3,4-d]pyrimidin-3-one] | 20 to 100 | < 100 | < 10 |  |  |  |
| C=CCn1c(=O)c2cnc(Nc3cnn(C(C)C)c3)nc2n1-c1cccc(OC2CC3CCCC(C2)N3C)n1 (stereo not drawn) [Compound 193, 2-allyl-6-(1-isopropyl-4-pyrazolylamino)-1-{6-(9-methyl-9-azabicyclo[3.3.1]non-3-yloxy)-2-pyridyl}-1,2-dihydro-3H-1,2,5,7-tetraazainden-3-one] | > 500 | 100 to 500 | < 10 |  |  |  |
| CCn1c(=O)c2cnc(Nc3cnn(C)c3)nc2n1-c1cccc(OC2CCN(C)CC2)n1 [Compound 341, 2-ethyl-6-[(1-methyl-1H-pyrazol-4-yl)amino]-1-{6-[(1-methylpiperidin-4-yl)oxy]pyridin-2-yl}-1H,2H,3H-pyrazolo[3,4-d]pyrimidin-3-one] | 20 to 100 | 100 to 500 |  |  |  |  |
| C=CCn1c(=O)c2cnc(Nc3ccc(Cl)cc3)nc2n1-c1cccc(N[C@H]2CCCN(C)C2)n1 [Compound 167, 1-{6-[(S)-1-methyl-3-piperidylamino]-2-pyridyl}-2-allyl-6-(p-chlorophenylamino)-1,2-dihydro-3H-1,2,5,7-tetraazainden-3-one] | 100 to 500 |  | 10 to 100 |  |  |  |

Next, values leading:

| IC50 [1, 4] [nM] | EC50 [2, 5] [nM] | IC50 [3, 6] [nM] | IC50 ([1]; Myt1 kinase Binding IC50, 3 nM tracer 178, 2.5 nM PMYT-1, 1 nM Eu-labeled antibody) [nM] | EC50 ([2]; read-out: CDK1 Tyr15 Phosphorylation EC50, 4 h treatment, nuclear positivity for pCdk1 Y15 vs DMSO control) [nM] | IC50 [3] [nM] | SMILES |
| --- | --- | --- | --- | --- | --- | --- |
| 20 to 100 | 500 to 1000 | < 10 |  |  |  | C=CCn1c(=O)c2cnc(Nc3ccc(Cl)cc3)nc2n1-c1cccc(OC2CCCNC2)n1 (stereo in doubt) [Compound 159, 6-[(4-chlorophenyl)amino]-1-{6-[(3R)-piperidin-3-yloxy]pyridin-2-yl}-2-(prop-2-en-1-yl)-1H,2H,3H-pyrazolo[3,4-d]pyrimidin-3-one] |
| 100 to 500 | 500 to 1000 | < 10 |  |  |  | C=CCn1c(=O)c2cnc(Nc3cc(C)nc(C(F)(F)F)c3)nc2n1-c1cccc(OC2CCN(C)CC2)n1 [Compound 202, 6-{[2-methyl-6-(trifluoromethyl)pyridin-4-yl]amino}-1-{6-[(1-methylpiperidin-4-yl)oxy]pyridin-2-yl}-2-(prop-2-en-1-yl)-1H,2H,3H-pyrazolo[3,4-d]pyrimidin-3-one] |
| 100 to 500 | < 100 | < 10 |  |  |  | C=CCn1c(=O)c2cnc(Nc3ccc4c(cnn4C)c3)nc2n1-c1cccc(N[C@@H]2CCN(C(C)C)C2)n1 [Compound 120, 6-[(1-methyl-1H-indazol-5-yl)amino]-2-(prop-2-en-1-yl)-1-(6-{[(3R)-1-(propan-2-yl)pyrrolidin-3-yl]amino}pyridin-2-yl)-1H,2H,3H-pyrazolo[3,4-d]pyrimidin-3-one] |
| 20 to 100 | < 100 | < 10 |  |  |  | C=CCn1c(=O)c2cnc(Nc3ccc(N4CCOCC4)c(C)c3)nc2n1-c1cccc(OC2CCNCC2)n1 [Compound 262, 2-allyl-6-(4-morpholino-3-toluidino)-1-[6-(4-piperidyloxy)-2-pyridyl]-1,2-dihydro-3H-1,2,5,7-tetraazainden-3-one] |
| 100 to 500 | > 1000 | < 10 |  |  |  | C=CCn1c(=O)c2cnc(Nc3ccc(C#N)c(C)c3)nc2n1-c1cccc(NC2CCNCC2)n1 [Compound 134, 2-methyl-4-[(3-oxo-1-{6-[(piperidin-4-yl)amino]pyridin-2-yl}-2-(prop-2-en-1-yl)-1H,2H,3H-pyrazolo[3,4-d]pyrimidin-6-yl)amino]benzonitrile] |
| > 500 |  | 10 to 100 |  |  |  | C=CCn1c(=O)c2cnc(Nc3ccc(Cl)cc3)nc2n1-c1cccc(N(C)[C@H]2CCCNC2)n1 [Compound 173, 1-{6-[N—(S)-3-piperidyl-N-methylamino]-2-pyridyl}-2-allyl-6-(p-chlorophenylamino)-1,2-dihydro-3H-1,2,5,7-tetraazainden-3-one] |

Reference: patent US20260364080A1, “PYRAZOLO-PYRIMIDINONE COMPOUNDS FOR USE IN METHODS OF INHIBITING WEE1 A KINASE” (Acrivon Therapeutics, Inc., priority 2023, published 2026)
